Reference: US11464749B2, “Bismuth-thiol compositions and methods of use” (Microbion Corporation, priority 2018, dated 2022)

What was measured:
[1] = Aerosol testing of BisEDT suspension formulations (aerosol concentration, particle size); assay type: physicochemical; details: Lot # ED268-1-11-01; 25 mg/mL formulation
Text: Objective: The objective of this study was to develop methods for the nose-only inhalation exposures of BisEDT for rodents. The aerosols were generated from suspension formulations of BisEDT in aqueous media (0.5% TWEEN 80® in Sodium Phosphate Buffer, pH 7.4). […] Suspension formulations were created by sonication with neat API with 0.5% TWEEN 80® in Sodium Phosphate Buffer, pH 7.4. This was further refined by adjusting the vehicle to an osmolality of 300 mOsmol/kg. Aerosols were characterized for particle size distribution and aerosol concentration. Aerosol concentration was determined by differential mass and chemical analysis of the aerosol filter samples.
Aerosol Methods: Formulation—Suspension formulations of BisEDT were prepared in 0.5% TWEEN 80® in Sodium Phosphate Buffer, pH 7.4. Suspensions of 2.5, 10, 25, 50, 75 and 100 mg/mL were prepared by sonication with a Covaris sonicator. In later tests, the vehicle was adjusted with sodium chloride to achieve an Osmolality of 300 mOsmol/kg. Suspensions were prepared at 2.5, 50, and 100 mg/mL.
Aerosol concentration was measured at the breathing zone of the exposure system by collection of the aerosol onto 47-mm filters (Whatman GF/A membrane filters). Filter samples were collected at a nominal flowrate of 0.3 L/min. Aerosol mass concentration was determined by differential weight analysis of the filter samples. […]

[2] = system: P. aeruginosa; experiment: MIC against CF bacterial strains (Example 5); details: Pseudomonas aeruginosa
[3] = system: A. niger; experiment: Broth microdilution antifungal susceptibility (Example 13); assay type: cell-based; details: Aspergillus niger, ATCC29508; read-out: MIC0 48 hr

Compound	BisEDT Aerosol Conc., average of all extracted concentrations incl. outlier filter [1] [µg/L]	MIC ([2]; strain AGR1) [µg/mL]	MIC ([2]; strain AGR14, Multi-drug resistant) [µg/mL]	MIC ([2]; strain MR14, Multi-drug resistant) [µg/mL]	MIC [3] [µg/mL]
C1C[S][Bi]([S]CC[S][Bi]2[S]CC[S]2)[S]1 [BisEDT, bismuth-1,2-ethanedithiol]	64.4				
CC(S)C(C)S.[Bi] (centres unmarked) [BisBDT, bismuth-2,3-butanedithiol]		1	1	1	2
